PubChem BioAssay (NCI)
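Five compound concentrations were applied to cells in 96-well plates for 48 hours; endpoints were derived by simple linear interpolation of the resulting dose-response curve. GI50 = concentration required for 50% inhibition of growth. TGI is the concentration that stops growth completely.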 Where a SMILES comes first, the peptide text is derived from it. The star is where a group is joined. Cbz = O=C(OCc1ccccc1)*; CH2Cl = ClC*

tested on: KM12 colon; experiment: NCI anticancer screen, dose series, 48 h

Row | Compound | GI50 [µM] | TGI [µM]
1 | O=C1C=CC(=O)c2cc3cc(CBr)ccc3cc21 | 17.5 | 38.4
2 | CC(C)Oc1ccc2cc(-c3nn(CC4CCNCC4)c4ncnc(N)c34)ccc2c1 | 12.6 | 26.4
3 | COc1cc(F)ccc1-c1ncnc(Nc2cccc(CS(C)(=N)=O)c2)n1 (stereo unspecified) | 0.561 | > 100
4 | CS(=O)(=O)CCNCc1nc(-c2ccc3ncnc(Nc4ccc(OCc5cccc(C(F)(F)F)c5)cc4)c3c2)cs1 | > 25 | > 25
5 | CC(C)CC(NC(=O)OCc1ccccc1)C(=O)NC(Cc1ccccc1)C(=O)CCl (stereo not drawn) (Cbz-Leu-Phe-CH2Cl; configuration not given here) |  | 35.3
6 | [Cl][Hg][c]1cc[c]([Hg][Cl])o1 | 10.6 | 24.4
7 | CCOC(=O)C(Cc1ccc(CCCC(=O)NCCC(=O)Nc2ccc3nc(C)sc3c2)cc1)C(=O)OCC | 33.4 | > 100
8 | NCCNc1c2c(c(NCCN)c3[nH]ccc13)C(=O)c1ccccc1C2=O | 0.191 | 0.957
9 | Cc1c2c(C#N)nccc2c(C)c2c1c1ccccc1n2Cc1ccccc1 |  | > 100
10 | CCOC(=O)Nc1ccc(-c2nc(-c3cccc(OCCN4CCOCC4)c3)c(-c3ccnc(Br)c3)[nH]2)cc1 | 3.19 | > 100
11 | COc1cc(Cn2c(-c3ccccc3)c(Cl)c3c2-c2oncc2CC3)cc(OC)c1 | 4.19 | > 100
12 | COc1ccc(-c2nn(-c3ccc(NC(=O)c4ccc(Cl)c(Cl)c4)cc3)cc2-c2ccncc2)cc1Cl | 1.59 | > 50

tested on: U251 CNS; experiment: NCI anticancer screen, dose series, 48 h

Row | Compound | TGI [µM] | GI50 [µM]
13 | O=C(O)Cc1cc(Cl)ccc1O | > 100 | 
14 | COc1ccc(C(=O)/C=C/c2cc(-c3cc(OC)c(OC)c(OC)c3)n[nH]2)cc1OC | 2.48 | 1.23
15 | C=C(C)[C@@H]1CC[C@]2(C)[C@H](CC=C3[C@@H]4CC(C)(C)CC[C@]4(C(N)=O)CC[C@]32C)[C@@]1(C)CCC#N | > 100 | 4.35
16 | COc1c(OC[C@H](O)CN2CCOCC2)ccc2c3n(c(=NC(=O)c4cccnc4C)nc12)CCN3 | > 50 | 2.58
17 | O=C(c1ccccc1Br)C(F)(F)F | > 100 | 
18 | COc1ccc(-c2nc3ccc(-c4nc5ccc(N6CCN(c7ccccc7)CC6)cc5[nH]4)cc3[nH]2)cc1OC | 3.02 | 1.2
19 | O=C(N[C@@H](c1ccc(Cl)c(Cl)c1)C1CNC1)c1ccc2cnccc2c1 | 4.26 | 0.475
20 | CO/N=C(\COc1ccc2c(c1)oc(=O)c1cc(OC)ccc12)c1ccc(OC)cc1 | > 100 | > 100
21 | O=C1OCC2=C1C(c1cccc(Br)c1)c1cc3c(cc1N2CCO)CCC3 (stereo unspecified) | 1.55 | 0.108
22 | Clc1ccc2[nH]cc(-c3nnnn3-c3ccccc3)c2c1 | > 78.9 | 14
23 | CC(=O)OC12C=CC(=O)N1c1ccccc1C(=O)O2 (stereo unspecified) | > 100 | 
24 | CCCC(=O)Nc1cc2c3c(c1)CCCN3CCC2 | > 10 | 
25 | COc1cc(-c2cc(-c3cc4c([nH]c5ccccc54)c(-c4cc(OC)c(OC)c(OC)c4)n3)cc(-c3ccccc3)n2)cc(OC)c1OC | 29.1 | 4.25
26 | O=C1C=CC(=O)c2cc3cc(CBr)ccc3cc21 | 36.2 | 14.4
27 | CC(C)Oc1ccc2cc(-c3nn(CC4CCNCC4)c4ncnc(N)c34)ccc2c1 | 21.7 | 9.02
28 | COc1cc(F)ccc1-c1ncnc(Nc2cccc(CS(C)(=N)=O)c2)n1 (stereo unspecified) | > 100 | 0.779
29 | CS(=O)(=O)CCNCc1nc(-c2ccc3ncnc(Nc4ccc(OCc5cccc(C(F)(F)F)c5)cc4)c3c2)cs1 | > 22.6 | 5.9
30 | CC(C)CC(NC(=O)OCc1ccccc1)C(=O)NC(Cc1ccccc1)C(=O)CCl (stereo not drawn) (Cbz-Leu-Phe-CH2Cl; configuration not given here) | 22 | 
31 | [Cl][Hg][c]1cc[c]([Hg][Cl])o1 | 2.46 | 0.737
32 | CCOC(=O)C(Cc1ccc(CCCC(=O)NCCC(=O)Nc2ccc3nc(C)sc3c2)cc1)C(=O)OCC | > 100 | > 81.4
33 | NCCNc1c2c(c(NCCN)c3[nH]ccc13)C(=O)c1ccccc1C2=O | 0.842 | 
34 | Cc1c2c(C#N)nccc2c(C)c2c1c1ccccc1n2Cc1ccccc1 | > 100 | 
35 | CCOC(=O)Nc1ccc(-c2nc(-c3cccc(OCCN4CCOCC4)c3)c(-c3ccnc(Br)c3)[nH]2)cc1 | > 100 | 2.75
36 | COc1cc(Cn2c(-c3ccccc3)c(Cl)c3c2-c2oncc2CC3)cc(OC)c1 | > 100 | 6.2
37 | COc1ccc(-c2nn(-c3ccc(NC(=O)c4ccc(Cl)c(Cl)c4)cc3)cc2-c2ccncc2)cc1Cl | > 50 | 1.3
38 | CN(C)C(n1cc2c(c1)-c1ccc(Cl)cc1C(c1ccccc1F)=NC2)n1cc2c(c1)-c1ccc(Cl)cc1C(c1ccccc1F)=NC2 | > 100 | 
39 | COc1cccc2c1C(=O)c1c(O)c3c(c(O)c1C2=O)C[C@](O)(C(=O)CO)C[C@H]3O[C@@H]1C[C@@H](NC(=O)CCCCCN(C)C2(c3ccc(F)cc3)CC3CCC2C3)[C@H](O)[C@@H](C)O1 (stereo partly specified) | 1.49 | 0.739

tested on: SW-620 colon; experiment: NCI anticancer screen, dose series, 48 h

Row | Compound | TGI [µM] | GI50 [µM]
40 | O=C(O)Cc1cc(Cl)ccc1O | > 100 | 
41 | COc1ccc(C(=O)/C=C/c2cc(-c3cc(OC)c(OC)c(OC)c3)n[nH]2)cc1OC | 2.99 | 1.37
42 | C=C(C)[C@@H]1CC[C@]2(C)[C@H](CC=C3[C@@H]4CC(C)(C)CC[C@]4(C(N)=O)CC[C@]32C)[C@@]1(C)CCC#N | 30.1 | 3.21
43 | COc1c(OC[C@H](O)CN2CCOCC2)ccc2c3n(c(=NC(=O)c4cccnc4C)nc12)CCN3 | > 50 | 49.4
44 | O=C(c1ccccc1Br)C(F)(F)F | > 100 | 
45 | COc1ccc(-c2nc3ccc(-c4nc5ccc(N6CCN(c7ccccc7)CC6)cc5[nH]4)cc3[nH]2)cc1OC | 2.71 | 1.15
46 | O=C(N[C@@H](c1ccc(Cl)c(Cl)c1)C1CNC1)c1ccc2cnccc2c1 | 12.3 | 0.41
47 | CO/N=C(\COc1ccc2c(c1)oc(=O)c1cc(OC)ccc12)c1ccc(OC)cc1 | > 100 | > 100
48 | O=C1OCC2=C1C(c1cccc(Br)c1)c1cc3c(cc1N2CCO)CCC3 (stereo unspecified) | 8.47 | 0.0583
49 | Clc1ccc2[nH]cc(-c3nnnn3-c3ccccc3)c2c1 | > 100 | 14.9
50 | CC(=O)OC12C=CC(=O)N1c1ccccc1C(=O)O2 (stereo unspecified) | > 100 | 
51 | CCCC(=O)Nc1cc2c3c(c1)CCCN3CCC2 | > 10 | 
52 | COc1cc(-c2cc(-c3cc4c([nH]c5ccccc54)c(-c4cc(OC)c(OC)c(OC)c4)n3)cc(-c3ccccc3)n2)cc(OC)c1OC | > 100 | 3.62
53 | O=C1C=CC(=O)c2cc3cc(CBr)ccc3cc21 | 4.97 | 2.29
54 | CC(C)Oc1ccc2cc(-c3nn(CC4CCNCC4)c4ncnc(N)c34)ccc2c1 | 26.8 | 13.2
55 | COc1cc(F)ccc1-c1ncnc(Nc2cccc(CS(C)(=N)=O)c2)n1 (stereo unspecified) | > 100 | 0.673
56 | CS(=O)(=O)CCNCc1nc(-c2ccc3ncnc(Nc4ccc(OCc5cccc(C(F)(F)F)c5)cc4)c3c2)cs1 | > 25 | > 25
57 | CC(C)CC(NC(=O)OCc1ccccc1)C(=O)NC(Cc1ccccc1)C(=O)CCl (stereo not drawn) (Cbz-Leu-Phe-CH2Cl; configuration not given here) | 3.94 | 
58 | [Cl][Hg][c]1cc[c]([Hg][Cl])o1 | 3.23 | 1.32
59 | CCOC(=O)C(Cc1ccc(CCCC(=O)NCCC(=O)Nc2ccc3nc(C)sc3c2)cc1)C(=O)OCC | > 100 | > 93.2
60 | NCCNc1c2c(c(NCCN)c3[nH]ccc13)C(=O)c1ccccc1C2=O | 1.09 | 0.216
61 | Cc1c2c(C#N)nccc2c(C)c2c1c1ccccc1n2Cc1ccccc1 | > 100 | 
62 | CCOC(=O)Nc1ccc(-c2nc(-c3cccc(OCCN4CCOCC4)c3)c(-c3ccnc(Br)c3)[nH]2)cc1 | > 100 | 3.42
63 | COc1cc(Cn2c(-c3ccccc3)c(Cl)c3c2-c2oncc2CC3)cc(OC)c1 | 19.2 | 3.7
64 | COc1ccc(-c2nn(-c3ccc(NC(=O)c4ccc(Cl)c(Cl)c4)cc3)cc2-c2ccncc2)cc1Cl | > 50 | 2.67
65 | CN(C)C(n1cc2c(c1)-c1ccc(Cl)cc1C(c1ccccc1F)=NC2)n1cc2c(c1)-c1ccc(Cl)cc1C(c1ccccc1F)=NC2 | > 100 | 
66 | COc1cccc2c1C(=O)c1c(O)c3c(c(O)c1C2=O)C[C@](O)(C(=O)CO)C[C@H]3O[C@@H]1C[C@@H](NC(=O)CCCCCN(C)C2(c3ccc(F)cc3)CC3CCC2C3)[C@H](O)[C@@H](C)O1 (stereo partly specified) | 1.85 | 0.76

tested on: K-562 leukemia; experiment: NCI anticancer screen, dose series, 48 h

Row | Compound | TGI [µM]
67 | O=C(O)Cc1cc(Cl)ccc1O | > 100
